Assay results reported in US8017612B2, “Piperazine compound and use thereof as a HCV polymerase inhibitor” (priority 2006, dated 2011).

Columns and labels:
[1] = target: T1, HCV polymerase (NS5B) type 1a (Hepatitis C virus genotype 1a, UniProt P26664); experiment: Assay of enzyme (HCV polymerase) inhibitory activity, type 1a enzyme; type: biochemical, HCV type 1a (cloned from the blood of patients); settings: HCV polymerase inhibitory activity (IC50), 1a, type 1a enzyme 1.5 μg/ml, 25° C., 60 min
T1 construct: made in house; host or cells: Escherichia coli (by the 'similar method' of the 1b enzyme)
Excerpt: (§1) The evaluation of the HCV polymerase inhibitory activity of the compound of the present invention is explained in the following. This polymerase is an enzyme coded for by the non-structural protein region called NS5B on the genome RNA of HCV.
(§2) i) Preparation of Enzyme (HCV Polymerase)
(§3) Using, as a template, a cDNA clone corresponding to the full length genome RNA of HCV BK strain (type 1b) obtained from the blood of a patient with hepatitis C, a region encoding NS5B (J Virol 1991 March, 65(3), 1105-13, 544 amino acids after deletion of 47 amino acids on the C-terminal) was amplified by PCR. The objective gene was prepared by adding a 6 His tag {base pair encoding 6 continuous histidine (His)} to the 3′ end thereof and transformed to Escherichia coli. The Escherichia coli capable of producing the objective protein was cultured. The obtained cells were suspended in a buffer solution and crushed in a microfluidizer. The supernatant was obtained by centrifugation and applied to various column chromatographys {mono-S, Sephacryl S-200 (Pharmacia)}, inclusive of metal chelate chromatography, to give a standard enzyme product.
Standard enzyme products for type 1a (cloned from the blood of patients) were also obtained by a similar method.
(§4) ii) Synthesis of Substrate RNA
(§5) Using a synthetic primer designed based on the sequence of HCV genomic 3′ untranslated region, a DNA fragment (148 bp) containing polyU and 3′X sequence was entirely synthesized and cloned into plasmid pBluescript SK II(+) (Stratagene). The cDNA encoding full length NS5B, which was prepared in i) above, was digested with restriction enzyme KpnI to give a cDNA fragment containing the nucleotide sequence of from the restriction enzyme cleavage site to the termination codon. This cDNA fragment was inserted into the upstream of 3′ untranslated region of the DNA in pBluescript SK II(+) and ligated. The about 450 bp inserted DNA sequence was used as a template in the preparation of substrate RNA. This plasmid was cleaved immediately after the 3′X sequence, linearized and purified by phenol-chloroform treatment and ethanol precipitation to give DNA.
(§6) RNA was synthesized (37° C., 4 hr) by run-off method using this purified DNA as a template, a promoter of pBluescript SK II(+), MEGAscript RNA synthesis kit (Ambion) and T7 RNA polymerase. DNase I was added and the mixture was incubated for 1 hr. The template DNA was removed by decomposition to give a crude RNA product. This crude product was treated with phenol-chloroform and purified by ethanol precipitation to give the objective substrate RNA.
(§7) This RNA was applied to urea denaturation polyacrylamide gel electrophoresis to confirm the quality thereof and preserved at −80° C.
(§8) iii) Assay of Enzyme (HCV Polymerase) inhibitory activity
(§9) A test substance (compound of the present invention) and a reaction mixture (30 μl) having the following composition were reacted at 25° C. for 60 min.
(§10) 10% Trichloroacetic acid and 1% sodium pyrophosphate solution (150 μl) at 4° C. was added to this reaction mixture to stop the reaction. The reaction mixture was left standing at 4° C. for 15 min to insolubilize RNA. This RNA was trapped on a glass filter (PerkinElmer, GF/B) upon filtration by suction. This filter was washed with a solution containing 1% trichloroacetic acid and 0.1% sodium pyrophosphate, washed with 90% ethanol and dried. A liquid scintillation cocktail (PerkinElmer) was added and the radioactivity of RNA synthesized by the enzyme reaction was measured on a liquid scintillation counter.
The HCV polymerase inhibitory activity (IC50) of the compound of the present invention was calculated from the values of radioactivity of the enzyme reaction with and without the test substance. […]

[2] = target: T2, HCV polymerase (NS5B) type 1b (Hepatitis C virus genotype 1b, UniProt P26663); experiment: Assay of enzyme (HCV polymerase) inhibitory activity, type 1b enzyme; type: biochemical, HCV BK strain (type 1b); settings: HCV polymerase inhibitory activity (IC50), 1b, type 1b enzyme 0.5 μg/ml, 25° C., 60 min
T2 construct: a region encoding NS5B (J Virol 1991 March, 65(3), 1105-13, 544 amino acids after deletion of 47 amino acids on the C-terminal); 6xHis (C); made in house; host or cells: Escherichia coli
Excerpt: as §1, §2, §3, §4, §5, §6, §7, §8, §9, §10
The HCV polymerase inhibitory activity (IC50) of the compound of the present invention was calculated from the values of radioactivity of the enzyme reaction with and without the test substance.
Reaction mixture: HCV polymerase (type 1b 0.5 μg/ml or type 1a 1.5 μg/m) obtained in i), substrate RNA (5 μg/ml) obtained in ii), ATP (50 μM), GTP (50 μM), CTP (50 μM), UTP (2 μM), [5,6-^3H]UTP (30-60 Ci/mmol (Amersham Biosciences), 1 μCi) 20 mM Tris-HCl (pH 7.5), EDTA (1 mM), MgCl2 (5 mM), NaCl (50 mM), DTT (1 mM), BSA (0.01%)

CC(=O)N1CCN(S(=O)(=O)c2ccc(Cl)c(Cl)c2)C(C(=O)NCc2ccc(C(F)(F)F)cc2)C1 (stereo not drawn) [Example 41, 4-acetyl-1-(3,4-dichloro-benzenesulfonyl)-piperazine-2-carboxylic acid 4-trifluoromethyl-benzylamide]
IC50 [1]: > 1000 nM | IC50 [2]: > 1000 nM

CC(=O)N1CCN(S(=O)(=O)c2cccc(-c3ccccc3)c2)C(C(=O)NCc2ccc(C(F)(F)F)cc2)C1 (stereo not drawn) [Example 42, 4-acetyl-1-(biphenyl-3-sulfonyl)-piperazine-2-carboxylic acid 4-trifluoromethyl-benzylamide]
IC50 [1]: > 1000 nM | IC50 [2]: > 1000 nM

CC(=O)N1CCN(S(=O)(=O)c2ccc(-c3cc(C(F)(F)F)on3)s2)C(C(=O)NCc2ccc(C(F)(F)F)cc2)C1 (stereo not drawn) [Example 43, 4-acetyl-1-[5-(5-trifluoromethyl-isoxazol-3-yl)-thiophene-2-sulfonyl]-piperazine-2-carboxylic acid 4-trifluoromethyl-benzylamide]
IC50 [1]: > 1000 nM | IC50 [2]: > 1000 nM

COc1ccc(S(=O)(=O)N2CCN(C(C)=O)CC2C(=O)NCc2ccc(C(F)(F)F)cc2)cc1 (stereo not drawn) [Example 44, 4-acetyl-1-(4-methoxy-benzenesulfonyl)-piperazine-2-carboxylic acid 4-trifluoromethyl-benzylamide]
IC50 [1]: > 1000 nM | IC50 [2]: > 1000 nM

CC(=O)N1CCN(S(=O)(=O)c2ccc(C(F)(F)F)cc2)C(C(=O)NCc2ccc(C(F)(F)F)cc2)C1 (stereo not drawn) [Example 45, 4-acetyl-1-(4-trifluoromethyl-benzenesulfonyl)-piperazine-2-carboxylic acid 4-trifluoromethyl-benzylamide]
IC50 [1]: > 1000 nM | IC50 [2]: > 1000 nM

CC(=O)N1CCN(S(=O)(=O)c2ccc(C#N)cc2)C(C(=O)NCc2ccc(C(F)(F)F)cc2)C1 (stereo not drawn) [Example 46, 4-acetyl-1-(4-cyano-benzenesulfonyl)-piperazine-2-carboxylic acid 4-trifluoromethyl-benzylamide]
IC50 [1]: > 1000 nM | IC50 [2]: > 1000 nM

CC(=O)N1CCN(S(=O)(=O)c2ccc(S(=O)(=O)c3ccccc3)s2)C(C(=O)NCc2ccc(C(F)(F)F)cc2)C1 (stereo not drawn) [Example 47, 4-acetyl-1-(5-benzenesulfonyl-thiophene-2-sulfonyl)-piperazine-2-carboxylic acid 4-trifluoromethyl-benzylamide]
IC50 [1]: > 1000 nM | IC50 [2]: > 1000 nM

CC(=O)N1CCN(S(=O)(=O)c2ccc3c(c2)CCO3)C(C(=O)NCc2ccc(C(F)(F)F)cc2)C1 (stereo not drawn) [Example 48, 4-acetyl-1-(2,3-dihydro-benzofuran-5-sulfonyl)-piperazine-2-carboxylic acid 4-trifluoromethyl-benzylamide]
IC50 [1]: > 1000 nM | IC50 [2]: > 1000 nM

CC(=O)N1CCN(S(=O)(=O)c2ccc(C(C)C)cc2)C(C(=O)NCc2ccccc2)C1 (stereo not drawn) [Example 49, 4-acetyl-1-(4-isopropyl-benzenesulfonyl)-piperazine-2-carboxylic acid benzylamide]
IC50 [1]: > 1000 nM | IC50 [2]: > 1000 nM

COc1ccccc1CNC(=O)C1CN(C(C)=O)CCN1S(=O)(=O)c1ccc(C(C)C)cc1 (stereo not drawn) [Example 50, 4-acetyl-1-(4-isopropyl-benzenesulfonyl)-piperazine-2-carboxylic acid 2-methoxy-benzylamide]
IC50 [1]: > 1000 nM | IC50 [2]: > 1000 nM

COc1cccc(CNC(=O)C2CN(C(C)=O)CCN2S(=O)(=O)c2ccc(C(C)C)cc2)c1 (stereo not drawn) [Example 51, 4-acetyl-1-(4-isopropyl-benzenesulfonyl)-piperazine-2-carboxylic acid 3-methoxy-benzylamide]
IC50 [1]: > 1000 nM | IC50 [2]: > 1000 nM

COc1ccc(CNC(=O)C2CN(C(C)=O)CCN2S(=O)(=O)c2ccc(C(C)C)cc2)cc1 (stereo not drawn) [Example 52, 4-acetyl-1-(4-isopropyl-benzenesulfonyl)-piperazine-2-carboxylic acid 4-methoxy-benzylamide]
IC50 [1]: > 1000 nM | IC50 [2]: > 1000 nM

CC(=O)N1CCN(S(=O)(=O)c2ccc(C(C)C)cc2)C(C(=O)NCc2ccc(OC(F)(F)F)cc2)C1 (stereo not drawn) [Example 53, 4-acetyl-1-(4-isopropyl-benzenesulfonyl)-piperazine-2-carboxylic acid 4-trifluoromethoxy-benzylamide]
IC50 [1]: 100 to 1000 nM | IC50 [2]: 100 to 1000 nM

CC(=O)N1CCN(S(=O)(=O)c2ccc(C(C)C)cc2)C(C(=O)NCc2ccc(Br)cc2)C1 (stereo not drawn) [Example 54, 4-acetyl-1-(4-isopropyl-benzenesulfonyl)-piperazine-2-carboxylic acid 4-bromo-benzylamide]
IC50 [1]: > 1000 nM | IC50 [2]: > 1000 nM

CC(C)c1ccc(S(=O)(=O)N2CCN(C(=O)CO)CC2C(=O)NCc2ccc(C(F)(F)F)cc2)cc1 (stereo not drawn) [Example 55, 4-(2-hydroxy-acetyl)-1-(4-isopropyl-benzenesulfonyl)-piperazine-2-carboxylic acid 4-trifluoromethyl-benzylamide]
IC50 [1]: > 1000 nM | IC50 [2]: > 1000 nM

CC(C)c1ccc(S(=O)(=O)N2CCN(C(=O)C(C)(C)O)CC2C(=O)NCc2ccc(C(F)(F)F)cc2)cc1 (stereo not drawn) [Example 56, 4-(2-hydroxy-2-methyl-propionyl)-1-(4-isopropyl-benzenesulfonyl)-piperazine-2-carboxylic acid 4-trifluoromethyl-benzylamide]
IC50 [1]: > 1000 nM | IC50 [2]: > 1000 nM

COCC(=O)N1CCN(S(=O)(=O)c2ccc(C(C)C)cc2)C(C(=O)NCc2ccc(C(F)(F)F)cc2)C1 (stereo not drawn) [Example 57, 1-(4-isopropyl-benzenesulfonyl)-4-(2-methoxy-acetyl)-piperazine-2-carboxylic acid 4-trifluoromethyl-benzylamide]
IC50 [1]: > 1000 nM | IC50 [2]: > 1000 nM

CC(C)c1ccc(S(=O)(=O)N2CCN(C(=O)CCO)CC2C(=O)NCc2ccc(C(F)(F)F)cc2)cc1 (stereo not drawn) [Example 58, 4-(3-hydroxy-propionyl)-1-(4-isopropyl-benzenesulfonyl)-piperazine-2-carboxylic acid 4-trifluoromethyl-benzylamide]
IC50 [1]: > 1000 nM | IC50 [2]: > 1000 nM

CC(C)c1ccc(S(=O)(=O)N2CCN(C(=O)N(C)C)CC2C(=O)NCc2ccc(C(F)(F)F)cc2)cc1 (stereo not drawn) [Example 59, 4-(4-isopropyl-benzenesulfonyl)-piperazine-1,3-dicarboxylic acid 1-dimethylamide 3-(4-trifluoromethyl-benzylamide)]
IC50 [1]: > 1000 nM | IC50 [2]: > 1000 nM

CCc1ccc(S(=O)(=O)N2CCN(C(C)=O)CC2C(=O)NCc2ccc(C(F)(F)F)cc2)cc1 (stereo not drawn) [Example 60, 4-acetyl-1-(4-ethyl-benzenesulfonyl)-piperazine-2-carboxylic acid 4-trifluoromethyl-benzylamide]
IC50 [1]: > 1000 nM | IC50 [2]: > 1000 nM

CC(=O)N1CCN(S(=O)(=O)c2ccc(I)cc2)C(C(=O)NCc2ccc(C(F)(F)F)cc2)C1 (stereo not drawn) [Example 61, 4-acetyl-1-(4-iodo-benzenesulfonyl)-piperazine-2-carboxylic acid 4-trifluoromethyl-benzylamide]
IC50 [1]: > 1000 nM | IC50 [2]: > 1000 nM
